Measurements from paper PMC5522311, “Adapting AlphaLISA high throughput screen to discover a novel small-molecule inhibitor targeting protein arginine methyltransferase 5 in pancreatic and colorectal cancers” (Oncotarget, 2017).

Target: T1, protein arginine methyltransferase 5 (PRMT5) (Homo sapiens, UniProt O14744)
T1 construct: Flag-tagged WT-PRMT5 purified from 293 cells with anti-Flag-M2 beads
Experiment: AlphaLISA methyltransferase assay (biotinylated histone H4 R3 symmetric dimethylation)
Type: biochemical

T1 sequence (O14744 2-637): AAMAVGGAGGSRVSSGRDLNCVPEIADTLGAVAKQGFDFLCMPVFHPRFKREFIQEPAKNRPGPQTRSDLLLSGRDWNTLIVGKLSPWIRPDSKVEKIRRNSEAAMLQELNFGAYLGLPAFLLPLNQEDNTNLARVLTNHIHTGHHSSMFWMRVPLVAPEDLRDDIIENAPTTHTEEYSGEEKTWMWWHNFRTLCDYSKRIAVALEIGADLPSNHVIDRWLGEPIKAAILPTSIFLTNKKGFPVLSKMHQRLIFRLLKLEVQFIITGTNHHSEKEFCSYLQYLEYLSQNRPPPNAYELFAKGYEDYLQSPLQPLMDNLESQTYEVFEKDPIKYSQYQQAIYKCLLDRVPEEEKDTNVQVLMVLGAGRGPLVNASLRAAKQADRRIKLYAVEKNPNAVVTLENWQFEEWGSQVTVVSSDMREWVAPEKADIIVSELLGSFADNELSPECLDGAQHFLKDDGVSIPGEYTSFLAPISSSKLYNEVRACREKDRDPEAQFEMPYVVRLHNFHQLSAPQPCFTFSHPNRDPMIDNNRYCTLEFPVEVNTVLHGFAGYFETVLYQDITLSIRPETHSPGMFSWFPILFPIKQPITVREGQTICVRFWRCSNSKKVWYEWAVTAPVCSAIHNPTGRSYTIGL

IC50: 7.5 µM
SMILES: Cc1ccc(Nc2nc(NCCN(C)C)nc3c2cnn3-c2ccccc2)cc1C [PR5-LL-CM01]
